In patent US20260138961A1, “MODULATORS OF MITOCHONDRIAL DNA REPLICATION” (Pretzel Therapeutics, Inc., priority 2022, published 2026):

The compounds below were run against T1, POLγA:G848S (Homo sapiens, UniProt P54098, G848S) (assay: DNA polymerization assay, POLγA:G848S mutant). Settings: G848S AC50, stimulation of polymerase activity, primed M13mp18 ssDNA, 37° C. 2 hours.
T1 sequence (P54098 1-1239 G848S): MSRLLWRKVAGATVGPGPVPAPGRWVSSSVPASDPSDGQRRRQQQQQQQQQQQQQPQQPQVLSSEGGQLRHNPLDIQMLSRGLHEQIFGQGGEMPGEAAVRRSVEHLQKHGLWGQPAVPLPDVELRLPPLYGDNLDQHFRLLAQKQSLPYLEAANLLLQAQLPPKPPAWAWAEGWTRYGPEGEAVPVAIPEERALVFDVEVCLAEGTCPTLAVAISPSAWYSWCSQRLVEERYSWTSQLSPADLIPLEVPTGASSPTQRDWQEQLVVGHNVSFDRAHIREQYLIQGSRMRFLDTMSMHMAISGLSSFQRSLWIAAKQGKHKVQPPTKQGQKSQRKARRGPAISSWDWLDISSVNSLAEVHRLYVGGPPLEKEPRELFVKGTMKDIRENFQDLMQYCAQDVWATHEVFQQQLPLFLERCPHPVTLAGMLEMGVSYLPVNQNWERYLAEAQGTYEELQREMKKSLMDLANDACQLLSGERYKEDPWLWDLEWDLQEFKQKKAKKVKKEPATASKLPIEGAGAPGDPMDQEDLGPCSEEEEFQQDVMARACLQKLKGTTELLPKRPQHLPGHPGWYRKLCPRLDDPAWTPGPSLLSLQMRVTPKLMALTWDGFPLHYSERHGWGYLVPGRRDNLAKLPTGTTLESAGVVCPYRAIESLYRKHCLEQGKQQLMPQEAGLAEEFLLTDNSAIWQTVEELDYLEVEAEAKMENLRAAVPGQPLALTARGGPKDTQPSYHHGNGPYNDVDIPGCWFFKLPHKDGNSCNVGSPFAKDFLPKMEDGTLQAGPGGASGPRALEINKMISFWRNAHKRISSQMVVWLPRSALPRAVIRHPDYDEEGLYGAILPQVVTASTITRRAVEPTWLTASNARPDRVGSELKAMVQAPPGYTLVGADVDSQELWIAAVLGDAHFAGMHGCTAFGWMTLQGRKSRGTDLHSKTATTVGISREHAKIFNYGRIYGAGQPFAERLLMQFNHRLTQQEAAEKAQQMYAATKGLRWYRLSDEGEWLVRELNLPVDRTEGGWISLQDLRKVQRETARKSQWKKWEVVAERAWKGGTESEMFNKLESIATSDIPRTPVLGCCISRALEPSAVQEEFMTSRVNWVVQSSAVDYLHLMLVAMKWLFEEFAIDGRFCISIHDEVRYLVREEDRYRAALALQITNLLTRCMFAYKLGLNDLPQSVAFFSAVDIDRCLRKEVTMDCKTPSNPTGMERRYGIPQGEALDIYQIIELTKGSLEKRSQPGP
T1 sequence (Q9UHN1 1-485 partner): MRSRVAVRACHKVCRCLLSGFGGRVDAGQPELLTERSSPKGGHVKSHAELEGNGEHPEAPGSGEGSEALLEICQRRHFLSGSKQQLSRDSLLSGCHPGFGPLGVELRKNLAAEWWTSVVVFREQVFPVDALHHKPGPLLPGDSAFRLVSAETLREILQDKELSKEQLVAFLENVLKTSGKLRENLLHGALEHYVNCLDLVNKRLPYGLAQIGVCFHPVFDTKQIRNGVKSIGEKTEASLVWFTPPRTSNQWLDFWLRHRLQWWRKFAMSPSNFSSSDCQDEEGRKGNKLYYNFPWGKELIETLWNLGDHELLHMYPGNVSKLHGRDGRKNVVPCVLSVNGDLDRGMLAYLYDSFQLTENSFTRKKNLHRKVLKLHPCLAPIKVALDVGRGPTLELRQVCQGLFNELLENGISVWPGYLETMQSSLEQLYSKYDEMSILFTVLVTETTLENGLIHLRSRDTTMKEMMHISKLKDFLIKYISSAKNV
Assay type: biochemical

Row | Compound | AC50
1 | Cc1cc(S(=O)(=O)Nc2noc(-c3ccccc3)n2)c(C)cc1Cl [Example 142, 4-chloro-2,5-dimethyl-N-(5-phenyl-1,2,4-oxadiazol-3-yl)benzenesulfonamide] | > 100 µM

Same assay, conditions: stimulation of polymerase activity, primed M13mp18 ssDNA, 37° C. 2 hours; read-out: G848S AC50

Row | Compound | AC50
2 | O=S(=O)(Nc1csc(-c2ccccc2)n1)c1ccc(F)cc1Cl [Example 126, 2-chloro-4-fluoro-N-(2-phenylthiazol-4-yl)benzenesulfonamide] | > 100 µM
3 | O=S(=O)(Nc1csc(-c2ccccc2)n1)c1ccc(C(F)(F)F)cc1 [Example 127, N-(2-phenylthiazol-4-yl)-4-(trifluoromethyl)benzenesulfonamide] | > 100 µM
4 | O=S(=O)(Nc1csc(-c2ccccc2)n1)c1cccc2nccnc12 [Example 128, N-(2-phenylthiazol-4-yl)quinoxaline-5-sulfonamide] | > 100 µM
5 | Cc1cc(S(=O)(=O)N[C@H]2CCCN(C(=O)c3ccccc3)C2)c(C)cc1Cl [Example 129, (S)-N-(1-benzoylpiperidin-3-yl)-4-chloro-2,5-dimethylbenzenesulfonamide] | > 100 µM
6 | Cc1cc(S(=O)(=O)N[C@H]2CCCN(C(=O)N3CCCC3)C2)c(C)cc1Cl [Example 130, (S)-4-chloro-2,5-dimethyl-N-(1-(pyrrolidinee-1-carbonyl)piperidin-3-yl)benzenesulfonamide] | > 100 µM
7 | Cc1cc(S(=O)(=O)Nc2nsc(-c3ccccc3)n2)c(C)cc1Cl [Example 131, 4-chloro-2,5-dimethyl-N-(5-phenyl-1,2,4-thiadiazol-3-yl)benzenesulfonamide] | 3 µM
8 | Cc1cc(S(=O)(=O)Nc2nc(-c3ccccc3)ns2)c(C)cc1Cl [Example 132, 4-chloro-2,5-dimethyl-N-(3-phenyl-1,2,4-thiadiazol-5-yl)benzenesulfonamide] | > 100 µM
9 | Cc1cc(S(=O)(=O)Nc2cccc(C(=O)N3CCC[C@@H]3C)c2)c(C)cc1Cl [Example 133, (S)-4-chloro-2,5-dimethyl-N-(3-(2-methylpyrrolidine-1-carbonyl)phenyl)benzenesulfonamide] | 18 µM
10 | Cc1ccc(C)c(S(=O)(=O)Nc2csc(-c3ccccc3)n2)c1 [Example 134, 2,5-dimethyl-N-(2-phenylthiazol-4-yl)benzenesulfonamide] | 1 µM
11 | Cc1cc(Cl)ccc1S(=O)(=O)Nc1csc(-c2ccccc2)n1 [Example 135, 4-chloro-2-methyl-N-(2-phenylthiazol-4-yl)benzenesulfonamide] | 2 µM
12 | Cc1cc(S(=O)(=O)Nc2csc(-c3ccccc3)n2)c(Cl)cc1F [Example 136, 2-chloro-4-fluoro-5-methyl-N-(2-phenylthiazol-4-yl)benzenesulfonamide] | 2 µM
13 | O=S(=O)(Nc1csc(-c2ccccc2)n1)c1ccc2ncsc2c1 [Example 137, N-(2-phenylthiazol-4-yl)benzo[d]thiazole-6-sulfonamide] | 11 µM
14 | O=S(=O)(Nc1csc(-c2ccccc2)n1)c1ccc(Cl)cc1Cl [Example 138, 2,4-dichloro-N-(2-phenylthiazol-4-yl)benzenesulfonamide] | > 100 µM
15 | O=S(=O)(Nc1csc(-c2ccccc2)n1)c1ccccn1 [Example 139, N-(2-phenylthiazol-4-yl)pyridine-2-sulfonamide] | > 100 µM
16 | O=S(=O)(Nc1csc(-c2ccccc2)n1)c1ccc(F)cc1F [Example 140, 2,4-difluoro-N-(2-phenylthiazol-4-yl)benzenesulfonamide] | > 100 µM
17 | O=S(=O)(Nc1csc(-c2ccccc2)n1)c1ccc(C(F)(F)F)cc1F [Example 141, 2-fluoro-N-(2-phenylthiazol-4-yl)-4-(trifluoromethyl)benzenesulfonamide] | > 100 µM
18 | Cc1cc(S(=O)(=O)Nc2nc(-c3ccccc3)no2)c(C)cc1Cl [Example 143, 4-chloro-2,5-dimethyl-N-(3-phenyl-1,2,4-oxadiazol-5-yl)benzenesulfonamide] | > 100 µM
19 | Cc1cc(S(=O)(=O)Nc2cccc(C(=O)N3CCC[C@H]3CO)c2)c(C)cc1Cl [Example 145, (S)-4-chloro-N-(3-(2-(hydroxymethyl)pyrrolidine-1-carbonyl)phenyl)-2,5-dimethylbenzenesulfonamide] | 67 µM
20 | Cc1cc(S(=O)(=O)Nc2csc(-c3ccccc3)n2)c(F)cc1Cl [Example 146, 4-chloro-2-fluoro-5-methyl-N-(2-phenylthiazol-4-yl)benzenesulfonamide] | > 100 µM
21 | O=S(=O)(Nc1csc(-c2ccccc2)n1)c1ccccc1 [Example 147, N-(2-phenylthiazol-4-yl)benzenesulfonamide] | > 100 µM
22 | Cc1cc(S(=O)(=O)Nc2csc(-c3ccccc3)n2)ccc1Cl [Example 148, 4-chloro-3-methyl-N-(2-phenylthiazol-4-yl)benzenesulfonamide] | > 100 µM
23 | Cc1cc(S(=O)(=O)N[C@@H]2CCCN(c3ccccc3)C2)c(C)cc1Cl [Example 149, (R)-4-chloro-2,5-dimethyl-N-(1-phenylpiperidin-3-yl)benzenesulfonamide] | > 100 µM
24 | Cc1cc(S(=O)(=O)N[C@@H]2CCCN(C(=O)c3ccccc3)C2)c(C)cc1Cl [Example 150, (R)-N-(1-benzoylpiperidin-3-yl)-4-chloro-2,5-dimethylbenzenesulfonamide] | > 100 µM
25 | O=S(=O)(Nc1csc(-c2ccccc2)n1)c1cccc(C(F)(F)F)c1 [Example 151, N-(2-phenylthiazol-4-yl)-3-(trifluoromethyl)benzenesulfonamide] | 2 µM
26 | O=S(=O)(Nc1csc(-c2ccccc2)n1)c1ccc2c(c1)CCO2 [Example 152, N-(2-phenylthiazol-4-yl)-2,3-dihydrobenzofuran-5-sulfonamide] | 6 µM
27 | Cc1cc(S(=O)(=O)N[C@@H]2CCCN(C(=O)N3CCCC3)C2)c(C)cc1Cl [Example 153, (R)-4-chloro-2,5-dimethyl-N-(1-(pyrrolidine-1-carbonyl)piperidin-3-yl)benzenesulfonamide] | > 100 µM
28 | Cc1cc(S(=O)(=O)Nc2ccc3c(c2)CC(=O)N3)c(C)cc1Cl [Example 185, 4-chloro-2,5-dimethyl-N-(2-oxoindolin-5-yl)benzenesulfonamide] | 15 µM
29 | (R)-2,5-dimethyl-N-(3-(3-methylmorpholine-4-carbonyl)phenyl)benzenesulfonamide [Example 1] | 18 µM
